pKi: −log10 of the molar value.

This is an account of results in BindingDB's records for doi:10.1021/jm00079a004 (National Institute of Diabetes and Digestive and Kidney …, 1992).

The target of this assay is Sigma non-opioid intracellular receptor 1 (Cavia porcellus). Put plainly: Displacement of [3H]-(+) -3PPP from sigma receptor in guinea pig brain membranes.
For `CN(CCc1ccc(Cl)cc1)CCN1CCCC1`, the pKi was 8.82.

The compound `CN(CCc1ccc2ccccc2c1)CCN1CCCC1` showed a pKi of 8.68.

Take `CNCCN(C)CCc1ccc(Cl)c(Cl)c1`: the negative-log Ki (pKi) was 8.24.

Regarding `CN(CCc1ccccc1)CCN1CCCC1`, the pKi was 8.13.

On to `CN(C)CCNCCc1ccc(Cl)c(Cl)c1`, for which the pKi is 7.70.

The compound `CN(CCCN1CCCC1)CCc1ccc(Cl)c(Cl)c1` had a pKi of 8.74.

The compound `CN(CCN1CCCC1)Cc1ccc(Cl)c(Cl)c1` gave a pKi of 9.42.

The compound `C=CCN(CCc1ccc(Cl)c(Cl)c1)CCN1CCCC1` showed a negative logarithm of the Ki (pKi) of 8.85.

As for `CCN(CCc1ccc(Cl)c(Cl)c1)CCN1CCCC1`, the pKi was 9.29.

`CC(CN(C)CCc1ccc(Cl)c(Cl)c1)N(C)C` (stereo unspecified) had a pKi of 8.82.

In turn, `CCN(CC)CCN(C)CCc1ccc(Cl)c(Cl)c1` showed a negative-log Ki (pKi) of 9.14.

What is called pKi is the Ki on a negative log10 scale, so that one unit is a factor of ten. A lower pKi goes with a large Ki.
